Source: patent US10308650B2, “Pesticidally active tetracyclic derivatives with sulfur containing substituents” (Syngenta Participations AG, priority 2014, dated 2019)

Assays:
Type in all cases: in vivo
[1] = tested on: Myzus persicae (Green Peach Aphid); test: Activity against Myzus persicae: feeding/contact activity; conditions: foliar, 144 h, application rate of 200 ppm, sunflower leaf discs, aphid population of mixed ages, 6 days after infestation, read-out: mortality
Description: Example B5: Activity Against Myzus persicae (Green Peach Aphid): Feeding/Contact Activity
Sunflower leaf discs were placed onto agar in a 24-well microtiter plate and sprayed with aqueous test solutions prepared from 10,000 ppm DMSO stock solutions. After drying, the leaf discs were infested with an aphid population of mixed ages. The samples were assessed for mortality 6 days after infestation.

[2] = tested on: Plutella xylostella (Diamond Back Moth); test: Activity against Plutella xylostella; conditions: 120 h, application rate of 200 ppm, artificial diet, L2 larvae, 5 days after infestation, read-out: effect in at least one of the two categories (mortality or growth inhibition)
Description: Example B8: Activity Against Plutella xylostella (Diamond Back Moth)
24-well microtiter plates with artificial diet were treated with aqueous test solutions prepared from 10,000 ppm DMSO stock solutions by pipetting. After drying, the plates were infested with L2 larvae (10 to 15 per well). The samples were assessed for mortality and growth inhibition in comparison to untreated samples 5 days after infestation.

[3] = tested on: Euschistus heros (Neotropical Brown Stink Bug); test: Activity against Euschistus heros; conditions: 120 h, application rate of 200 ppm, soybean leaves, N2 nymphs, 5 days after infestation, read-out: effect in at least one of the two categories (mortality or growth inhibition)
Description: Example B3: Activity Against Euschistus heros (Neotropical Brown Stink Bug)
Soybean leaves on agar in 24-well microtiter plates were sprayed with aqueous test solutions prepared from 10,000 ppm DMSO stock solutions. After drying the leaves were infested with N2 nymphs. The samples were assessed for mortality and growth inhibition in comparison to untreated samples 5 days after infestation.

[4] = tested on: Myzus persicae (Green Peach Aphid); test: Activity against Myzus persicae: systemic activity; conditions: 144 h, test rate of 24 ppm, roots of infested pea seedlings in test solution, 6 days, read-out: mortality
Description: Example B6: Activity Against Myzus persicae (Green Peach Aphid). Systemic Activity
Roots of pea seedlings infested with an aphid population of mixed ages were placed directly into aqueous test solutions prepared from 10,000 DMSO stock solutions. The samples were assessed for mortality 6 days after placing seedlings into test solutions.

[5] = tested on: Diabrotica balteata (Corn Root Worm); test: Activity against Diabrotica balteata; conditions: 96 h, application rate of 200 ppm, maize sprouts, L2 larvae, 4 days after infestation, read-out: effect in at least one of the two categories (mortality or growth inhibition)
Description: Example B2: Activity Against Diabrotica balteata (Corn Root Worm)
Maize sprouts placed onto an agar layer in 24-well microtiter plates were treated with aqueous test solutions prepared from 10,000 ppm DMSO stock solutions by spraying. After drying, the plates were infested with L2 larvae (6 to 10 per well). The samples were assessed for mortality and growth inhibition in comparison to untreated samples 4 days after infestation.

[6] = tested on: Spodoptera littoralis (Egyptian Cotton Leaf Worm); test: Activity against Spodoptera littoralis (cotton leaf discs, spray); conditions: foliar, 72 h, application rate of 200 ppm, cotton leaf discs, L1 larvae, 3 days after infestation, read-out: control (mortality, anti-feeding effect, growth inhibition)
Description: Example B9: Activity Against Spodoptera littoralis (Egyptian Cotton Leaf Worm)
Cotton leaf discs were placed onto agar in 24-well microtiter plates and sprayed with aqueous test solutions prepared from 10,000 ppm DMSO stock solutions. After drying the leaf discs were infested with five L1 larvae. The samples were assessed for mortality, anti-feeding effect, and growth inhibition in comparison to untreated samples 3 days after infestation. Control of Spodoptera littoralis by a test sample is given when at least one of the categories mortality, anti-feedant effect, and growth inhibition is higher than the untreated sample.

[7] = tested on: Bemisia tabaci (Cotton White Fly); test: Activity against Bemisia tabaci: feeding/contact activity; conditions: foliar, 144 h, application rate of 200 ppm, cotton leaf discs, adult white flies, 6 days after incubation
Description: Example B1: Activity Against Bemisia tabaci (Cotton White Fly): Feeding/Contact Activity
Cotton leaf discs were placed on agar in 24-well microtiter plates and sprayed with aqueous test solutions prepared from 10,000 ppm DMSO stock solutions. After drying the leaf discs were infested with adult white flies. The samples were checked for mortality 6 days after incubation.

[8] = tested on: Frankliniella occidentalis (Western Flower Thrips); test: Activity against Frankliniella occidentalis: feeding/contact activity; conditions: foliar, 168 h, application rate of 200 ppm, sunflower leaf discs, population of mixed ages, 7 days after infestation
Description: Example B4: Activity Against Frankliniella occidentalis (Western Flower Thrips): Feeding/Contact Activity
Sunflower leaf discs were placed on agar in 24-well microtiter plates and sprayed with aqueous test solutions prepared from 10,000 DMSO stock solutions. After drying the leaf discs were infested with a Frankliniella population of mixed ages. The samples were assessed for mortality 7 days after infestation.

[9] = tested on: Aedes aegypti (Yellow Fever Mosquito); test: Activity against Aedes aegypti; conditions: 200 ppm in ethanol, dry deposit in 12 well plates, adult females, after 48 h and/or 24 h
Description: Example B13: Activity Against Aedes aegypti (Yellow Fever Mosquito)
Test solutions, at an application rate of 200 ppm in ethanol, were applied to 12 well tissue culture plates. Once the deposits were dry, five, two to five day old adult female Aedes aegypti were added to each well, and sustained with a 10% sucrose solution in a cotton wool plug. Assessment of knockdown was made one hour after introduction, and mortality was assessed at 24 and 48 hours after introduction.

[10] = tested on: Spodoptera littoralis (Egyptian Cotton Leaf Worm); test: Activity against Spodoptera littoralis (lettuce, uptake by the roots from agar); conditions: 144 h, test rate of 12.5 ppm, lettuce grown on treated agar, Spodoptera eggs, 6 days after infestation, read-out: effect in at least one of the three categories (mortality, anti-feeding, or growth inhibition)
Description: Example B10: Activity Against Spodoptera littoralis (Egyptian Cotton Leaf Worm)
Test compounds were applied by pipette from 10,000 ppm DMSO stock solutions into 24-well plates and mixed with agar. Lettuce seeds were placed onto the agar and the multi well plate was closed by another plate which contained also agar. After 7 days the compound was absorbed by the roots and the lettuce grew into the lid plate. The lettuce leaves were then cut off into the lid plate. Spodoptera eggs were pipetted through a plastic stencil onto a humid gel blotting paper and the lid plate was closed with it. The samples were assessed for mortality, anti-feedant effect and growth inhibition in comparison to untreated samples 6 days after infestation.

[11] = tested on: Tetranychus urticae (Two-Spotted Spider Mite); test: Activity against Tetranychus urticae: feeding/contact activity; conditions: foliar, 192 h, application rate of 200 ppm, bean leaf discs, mixed population (mobile stages), 8 days after infestation
Description: Example B11: Activity Against Tetranychus urticae (Two-Spotted Spider Mite): Feeding/Contact Activity
Bean leaf discs on agar in 24-well microtiter plates were sprayed with aqueous test solutions prepared from 10,000 ppm DMSO stock solutions. After drying the leaf discs were infested with a mite population of mixed ages. The samples were assessed for mortality on mixed population (mobile stages) 8 days after infestation.

CCS(=O)(=O)c1cc2c(nc1-c1nc3cc(C(F)(F)F)ncc3n1C)nc(C(F)(F)F)n2C [Compound A33, 6-ethylsulfonyl-1-methyl-5-[3-methyl-6-(trifluoromethyl)imidazo[4,5-c]pyridin-2-yl]-2-(trifluoromethyl)imidazo[4,5-b]pyridine]
≥ 80%: mortality at 200 ppm [1] | percent effect (mortality or growth inhibition) at 200 ppm [2] | percent effect (mortality or growth inhibition) at 200 ppm [3] | mortality at 24 ppm [4] | percent effect (mortality or growth inhibition) at 200 ppm [5] | mortality at 200 ppm [6] | mortality at 200 ppm [7] | mortality at 200 ppm [8]

CCS(=O)(=O)c1cc2nc(C(F)(F)F)sc2cc1-c1nc2cc(C(F)(F)F)ncc2n1C [Compound A31, 5-ethylsulfonyl-6-[3-methyl-6-(trifluoromethyl)imidazo[4,5-c]pyridin-2-yl]-2-(trifluoromethyl)-1,3-benzothiazole]
≥ 80%: mortality at 200 ppm [1] | percent effect (mortality or growth inhibition) at 200 ppm [2] | pest or weed control at 200 ppm [9] | percent effect (mortality or growth inhibition) at 200 ppm [3] | percent effect (mortality or growth inhibition) at 200 ppm [5] | mortality at 200 ppm [6] | mortality at 200 ppm [7] | mortality at 200 ppm [8] | percent effect (mortality, anti-feeding or growth inhibition) at 12.5 ppm [10]

CCS(=O)(=O)c1cc2nn(C)nc2cc1-c1nc2cc(C(F)(F)F)ncc2n1C [Compound A37, 5-ethylsulfonyl-2-methyl-6-[3-methyl-6-(trifluoromethyl)imidazo[4,5-c]pyridin-2-yl]benzotriazole]
≥ 80%: mortality at 200 ppm [1] | percent effect (mortality or growth inhibition) at 200 ppm [2] | percent effect (mortality or growth inhibition) at 200 ppm [3] | mortality at 24 ppm [4] | percent effect (mortality or growth inhibition) at 200 ppm [5] | mortality at 200 ppm [6] | mortality at 200 ppm [8]

CCS(=O)(=O)c1cc2nc(C(F)(F)F)[nH]c2cc1-c1nc2cc(C(F)(F)F)ncc2n1C [Compound A7, 2-[6-ethylsulfonyl-2-(trifluoromethyl)-3H-benzimidazol-5-yl]-3-methyl-6-(trifluoromethyl)imidazo[4,5-c]pyridine]
≥ 80%: mortality at 200 ppm [6] | mortality at 200 ppm [11]

CCS(=O)(=O)c1cc2c(C3CC3)cccc2nc1-c1nc2cc(C(F)(F)F)ncc2n1C [Compound A43, 5-cyclopropyl-3-ethylsulfonyl-2-[3-methyl-6-(trifluoromethyl)imidazo[4,5-c]pyridin-2-yl]quinoline]
≥ 80%: mortality at 200 ppm [1] | percent effect (mortality or growth inhibition) at 200 ppm [2] | percent effect (mortality or growth inhibition) at 200 ppm [3] | percent effect (mortality or growth inhibition) at 200 ppm [5] | mortality at 200 ppm [6] | mortality at 200 ppm [11] | percent effect (mortality, anti-feeding or growth inhibition) at 12.5 ppm [10]
